Experimental data: publication PMC9090415, “Discovery of small molecule inhibitors of Plasmodium falciparum apicoplast DNA polymerase” (Journal of Enzyme Inhibition and Medicinal Chemistry, 2022)

Target: P. falciparum apicoplast DNA polymerase (Pf-apPOL) (Plasmodium falciparum, UniProt Q8ILY1)
Experiment: Fluorescence-based high-throughput DNA polymerase assay (molecular beacon), primary screen and dose-response
Type: biochemical
Conditions: for DNA Pol: 90 min, 10 µM; for % inhibition apPOL 180' 2.5 / % inhibition apPOL 180' 5 / % inhibition apPOL 180' 10 / % inhibition apPOL 180' 20 / % inhibition apPOL 180' 40 / % inhibition apPOL 180' 80: read at 180'
How it was run: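 Single-point screening used 10 µM compound with 20 nM polymerase, 20 nM hairpin substrate and 6 µM dNTPs for 90 min at 25 °C. Confirmatory titrations (2.5–80 µM) followed fluorescence at three times, and IC50 was derived from a fit including a cooperativity term n.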

Chain of P. falciparum apicoplast DNA polymerase (Pf-apPOL) (Q8ILY1 entry or part of it): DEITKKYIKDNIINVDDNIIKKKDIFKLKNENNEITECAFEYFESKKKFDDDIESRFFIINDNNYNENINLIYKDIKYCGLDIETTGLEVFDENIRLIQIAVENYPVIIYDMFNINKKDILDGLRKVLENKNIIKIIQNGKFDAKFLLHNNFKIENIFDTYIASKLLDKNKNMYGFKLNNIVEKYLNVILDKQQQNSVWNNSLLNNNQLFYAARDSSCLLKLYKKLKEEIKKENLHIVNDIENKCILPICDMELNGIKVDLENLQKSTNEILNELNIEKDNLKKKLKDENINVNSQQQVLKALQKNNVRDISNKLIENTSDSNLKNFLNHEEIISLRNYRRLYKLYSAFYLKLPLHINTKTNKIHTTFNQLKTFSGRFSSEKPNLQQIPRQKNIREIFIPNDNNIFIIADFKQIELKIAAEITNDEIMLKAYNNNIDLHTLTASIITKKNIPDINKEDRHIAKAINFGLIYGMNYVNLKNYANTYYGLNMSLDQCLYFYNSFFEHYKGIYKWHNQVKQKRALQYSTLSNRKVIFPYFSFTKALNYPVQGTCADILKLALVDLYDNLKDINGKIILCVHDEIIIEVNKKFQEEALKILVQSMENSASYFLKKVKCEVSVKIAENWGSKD

## CC(=O)OCC1=C(C(=O)[O-])N2C(=O)[C@@H](NC(=O)Cc3cccs3)[C@H]2SC1.[Na+] [Molecule 73, CC(=O)OCC1=C(C(=O)[O-])N2[C@H](SC1)[C@@H](C2=O)NC(=O)Cc1cccs1.[Na+]]
186 hits, DNA Pol (screen value), unit not given
  DNA Pol: 62
'DNA Pol' (screen value), unit not given
  DNA Pol: 62
DRC-1, read at 10', concentration 2.5
  % inhibition Apo pol 10' 2.5: 15.9246%
DRC-1, read at 10', concentration 5
  % inhibition Apo pol 10' 5: 24.2196%
DRC-1, read at 10', concentration 10
  % inhibition Apo pol 10' 10: 38.6298%
DRC-1, read at 10', concentration 20
  % inhibition Apo pol 10' 20: 52.9189%
DRC-1, read at 10', concentration 40
  % inhibition Apo pol 10' 40: 72.9017%
DRC-1, read at 10', concentration 80
  % inhibition Apo pol 10' 80: 83.4409%
DRC-1, read at 90', concentration 2.5
  % inhibition Apol 90' 2.5: -0.64%
DRC-1, read at 90', concentration 5
  % inhibition Apol 90' 5: -0.282%
DRC-1, read at 90', concentration 10
  % inhibition Apol 90' 10: 6.863%
DRC-1, read at 90', concentration 20
  % inhibition Apol 90' 20: 14.2955%
DRC-1, read at 90', concentration 40
  % inhibition Apol 90' 40: 36.8577%
DRC-1, read at 90', concentration 80
  % inhibition Apol 90' 80: 67.9349%
DRC-1, concentration 2.5
  % inhibition apPOL 180' 2.5: -8.644%
DRC-1, concentration 5
  % inhibition apPOL 180' 5: -9.547%
DRC-1, concentration 10
  % inhibition apPOL 180' 10: -4.869%
DRC-1, concentration 20
  % inhibition apPOL 180' 20: -0.1262%
DRC-1, concentration 40
  % inhibition apPOL 180' 40: 18.2499%
DRC-1, concentration 80
  % inhibition apPOL 180' 80: 56.6871%
DRC-2, concentration 2.5
  % inhibition Apol 40': 1.25%
  % inhibition ApPOL 90': 1.25%
  % inhibition apPOL 180' 2.5: -0.311%
DRC-2, concentration 20
  % inhibition Apol 40': 29%
  % inhibition apPOL 180' 20: 10%
DRC-2, concentration 40
  % inhibition apPOL 180': 29%
  % inhibition apPOL 180' 40: 29%
DRC-2, read at 5', concentration 2.5
  % inhibition Apo pol 5' 2.5: 3%
DRC-2, read at 5', concentration 5
  % inhibition Apo pol 5' 5: 6.34%
DRC-2, read at 5', concentration 10
  % inhibition Apo pol 5' 10: 22%
DRC-2, read at 5', concentration 20
  % inhibition Apo pol 5' 20: 36%
DRC-2, read at 5', concentration 40
  % inhibition Apo pol 5' 40: 43%
DRC-2, read at 5', concentration 80
  % inhibition Apo pol 5' 80: 50%
DRC-2, read at 40', concentration 2.5
  % inhibition Apol 40' 2.5: 1.25%
DRC-2, read at 40', concentration 5
  % inhibition Apol 40' 5: 2%
DRC-2, read at 40', concentration 10
  % inhibition Apol 40' 10: 13%
DRC-2, read at 40', concentration 20
  % inhibition Apol 40' 20: 29%
DRC-2, read at 40', concentration 40
  % inhibition Apol 40' 40: 45%
DRC-2, read at 40', concentration 80
  % inhibition Apol 40' 80: 62%
DRC-2, read at 90', concentration 2.5
  % inhibition ApPOL 90' 2.5: 1.25%
DRC-2, read at 90', concentration 5
  % inhibition ApPOL 90' 5: -1.85%
DRC-2, read at 90', concentration 10
  % inhibition ApPOL 90' 10: 5%
DRC-2, read at 90', concentration 20
  % inhibition ApPOL 90' 20: 20%
DRC-2, read at 90', concentration 40
  % inhibition ApPOL 90' 40: 39%
DRC-2, read at 90', concentration 80
  % inhibition ApPOL 90' 80: 63%
DRC-2, concentration 5
  % inhibition apPOL 180' 5: -7%
DRC-2, concentration 10
  % inhibition apPOL 180' 10: -2.83%
DRC-2, concentration 80
  % inhibition apPOL 180' 80: 60%

## COc1cccc(C(=O)N2CCc3c(nc4cc(-c5ccccc5)[nH]n4c3=O)C2)c1OC [Molecule 22, COc1c(OC)cccc1C(=O)N1CCc2c(C1)nc1n(c2=O)[nH]c(c1)c1ccccc1]
"DNA Pol" of the 186 hits list (screen value)
  DNA Pol: 45
DRC-1, concentration 2.5
  % inhibition Apo pol 10': -0.412%
  % inhibition Apol 90': -3%
  % inhibition apPOL 180': -5.7%
DRC-1, concentration 5
  % inhibition Apo pol 10': 25%
  % inhibition Apol 90': 12%
  % inhibition apPOL 180': 2.34%
DRC-1, concentration 10
  % inhibition Apo pol 10': 67%
  % inhibition Apol 90': 49%
  % inhibition apPOL 180': 32%
DRC-1, concentration 20
  % inhibition Apo pol 10': 81%
  % inhibition Apol 90': 67%
  % inhibition apPOL 180': 49%
DRC-1, concentration 40
  % inhibition Apo pol 10': 88%
  % inhibition Apol 90': 83%
  % inhibition apPOL 180': 73%
DRC-1, concentration 80
  % inhibition Apo pol 10': 81%
  % inhibition Apol 90': 84%
  % inhibition apPOL 180': 78%
DRC-2, concentration 2.5
  % inhibition Apo pol 5': -0.913%
  % inhibition Apol 40': -1.15%
  % inhibition ApPOL 90': 0.469%
  % inhibition apPOL 180': -0.311%
DRC-2, concentration 5
  % inhibition Apo pol 5': 19%
  % inhibition Apol 40': 21%
  % inhibition ApPOL 90': 20%
  % inhibition apPOL 180': 13%
DRC-2, concentration 10
  % inhibition Apo pol 5': 42%
  % inhibition Apol 40': 45%
  % inhibition ApPOL 90': 44%
  % inhibition apPOL 180': 34%
DRC-2, concentration 20
  % inhibition Apo pol 5': 52%
  % inhibition Apol 40': 61%
  % inhibition ApPOL 90': 61%
  % inhibition apPOL 180': 53%
DRC-2, concentration 40
  % inhibition Apo pol 5': 55%
  % inhibition Apol 40': 69%
  % inhibition ApPOL 90': 70%
  % inhibition apPOL 180': 65%
DRC-2, concentration 80
  % inhibition Apo pol 5': 47%
  % inhibition Apol 40': 66%
  % inhibition ApPOL 90': 70%
  % inhibition apPOL 180': 69%
First DRC, concentration 10
  % inhibition Apo pol 10': 67%
  % inhibition Apol 90': 49%
First DRC, concentration 20
  % inhibition Apo pol 10': 81%
  % inhibition Apol 90': 67%
  % inhibition apPOL 180': 49%
First DRC, concentration 80
  % inhibition Apo pol 10': 81%
Primary screen value, DNA Pol
  DNA Pol: 45
